Data taken from patent publication US11882835B2, “Benzimidazole compound having an optionally halogenated alkylenedioxy group or salt thereof, agricultural and horticultural insecticide comprising the compound or the salt, and method for using the insecticide” (NIHON NOHYAKU CO., LTD., priority 2018, dated 2024).

Experiments:
[1] = tested on: Plutella xylostella; assay: whole plant or invertebrate; settings: in Brassica rapa, 144 h, read-out: activity level (corrected mortality rate) of P. xylostella
[2] = tested on: Haemonchus contortus; assay: Larval motility assay on Haemonchus contortus; format: in vivo; settings: 96 h, 4 days, relative to DMSO only, read-out: percent motility inhibition, H. contortus L1 stage larvae
Protocol: Larval motility assay on Haemonchus contortus DMSO diluted solutions of various compounds of the present invention were added at the final concentration of 50 ppm to the wells of a 96-well plate containing a predetermined conditioned medium. Twenty L1 stage larvae of H. contortus were introduced into each well of the 96-well plate. The plate was allowed to stand for 4 days, and then larval motility was examined. The percent motility inhibition in the wells of each treatment was calculated relative to the wells of treatment with DMSO only.

[3] = tested on: Laodelphax striatellus; assay: Insecticidal test on Laodelphax striatellus (rice seedling dip); settings: in Oryza sativa, 192 h, read-out: activity level (corrected mortality rate) of L. striatellus
[4] = tested on: Ctenocephalides felis; assay: Assay for oral parasiticidal activity against adults of Ctenocephalides felis; format: in vivo; settings: read-out: mortality rate, adults of C. felis
Protocol: Assay for Oral Parasiticidal Activity Against Adults of Ctenocephalides felis
Newly-emerged adults of C. felis were placed into test cages (10 adults per test cage). DMSO diluted solutions of various compounds of the present invention were added to aliquots of bovine blood at the final concentration of 50 ppm and orally administered to the adults of C. felis using a feeder. The mortality rate was examined on the following day. Aberrant adults were regarded as the dead.

[5] = tested on: Rhipicephalus sanguineus; assay: Assay for transdermal parasiticidal activity against nymphs of Rhipicephalus sanguineus; format: in vivo; settings: 48 h, read-out: mortality rate, nymphs of R. sanguineus
Excerpt: Assay for Transdermal Parasiticidal Activity Against Nymphs of Rhipicephalus sanguineus
DMSO diluted solutions of various compounds of the present invention were individually diluted to the final concentration of 100 ppm with an acetone/triton solution and applied to the inside of vented sample bottles. After overnight drying, ten nymphs of R. sanguineus were introduced into each bottle, and the mortality rate was examined two days later. Aberrant adults were regarded as the dead.

[6] = tested on: Dirofilaria immitis; assay: Larval motility assay on Dirofilaria immitis; format: in vivo; settings: 72 h, 3 days, relative to DMSO only, read-out: percent motility inhibition, D. immitis L1 stage larvae
Protocol: Larval Motility Assay on Dirofilaria immitis
Five hundred L1 stage larvae of D. immitis were diluted in a predetermined conditioned medium and introduced into each well of a 96-well plate. DMSO diluted solutions of various compounds of the present invention were added at the final concentration of 50 ppm to the wells of the 96-well plate. The plate was allowed to stand for 3 days, and then larval motility was examined. The percent motility inhibition in the wells of each treatment was calculated relative to the wells of treatment with DMSO only.

## CCSc1cc(C2CC2)cnc1-c1nc2cc3c(cc2n1C(F)F)OC(F)(F)O3 [Compound 1-7, 6-(5-cyclopropyl-3-ethylthiopyridin-2-yl)-2,2-difluoro-5-di fluoromethyl-5H-[1,3]dioxolo[4′,5′:4,5]benzo[1,2-d]imidazole]
[1]
  mortality at 500 ppm: 100%

## CCS(=O)(=O)c1cc(C2CC2)cnc1-c1nc2cc3c(cc2n1C)OC(F)(F)O3 [Compound 1-3, 6-(5-cyclopropyl-3-ethylsulfonyl-pyridin-2-yl)-2,2-difluoro-5-methyl-5H-[1,3]dioxolo[4′,5′:4,5]benzo[1,2-d]imidazole]
[2]
  inhibition at 50 ppm: ≥ 50%
[3]
  mortality at 500 ppm: 100%
[4]
  mortality at 50 ppm: ≥ 50%
[5]
  mortality at 100 ppm: ≥ 50%
[1]
  mortality at 500 ppm: 100%
[6]
  inhibition at 50 ppm: ≥ 50%

## CCS(=O)(=O)c1cc(C2CC2)cnc1-c1nc2cc3c(cc2n1C(F)F)OC(F)(F)O3 [Compound 1-9, 6-(5-cyclopropyl-3-ethylsulfonylpyridin-2-yl)-2,2-difluoro-5-difluoromethyl-5H-[1,3]dioxolo[4′,5′:4,5]benzo[1,2-d]imid azole]
[1]
  mortality at 500 ppm: 100%

## CCSc1cc(C2CC2)cnc1-c1nc2cc3c(cc2n1C)OC(F)(F)O3 [Compound 1-1, 6-(5-cyclopropyl-3-ethylthiopyridin-2-yl)-2,2-difluoro-5-me thyl-5H-[1,3]dioxolo[4′,5′:4,5]benzo[1,2-d]imidazole]
[3]
  mortality at 500 ppm: 100%
[1]
  mortality at 500 ppm: 100%
